Measured values taken from the supplement of paper PMC10307832.

How the values were obtained:
Experiment in all cases: relative viability (nuclei count vs DMSO), 5 days (fraction); higher = more cells survive
Tozasertib + Olaparib = compound: Cc1cc(Nc2cc(N3CCN(C)CC3)nc(Sc3ccc(NC(=O)C4CC4)cc3)n2)n[nH]1 [Tozasertib] + O=C(c1cc(Cc2n[nH]c(=O)c3ccccc23)ccc1F)N1CCN(C(=O)C2CC2)CC1 [Olaparib] (partner 8 µM)
Method in brief: (§1)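 One day after seeding in 1536-well plates, lung cancer cell lines were dosed by pin tool. Dosing was either single-drug or a fixed anchor-drug dose plus five library-drug doses (not always all listed) in √10 steps. After 5 days, nuclei were stained in one fix-and-stain step and counted on 4× images, and relative viability is the nuclei count of treated wells over that of vehicle wells, given as the median of duplicate plates.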

Tozasertib + Navitoclax = compound: Cc1cc(Nc2cc(N3CCN(C)CC3)nc(Sc3ccc(NC(=O)C4CC4)cc3)n2)n[nH]1 [Tozasertib] + CC1(C)CCC(c2ccc(Cl)cc2)=C(CN2CCN(c3ccc(C(=O)NS(=O)(=O)c4ccc(N[C@H](CCN5CCOCC5)CSc5ccccc5)c(S(=O)(=O)C(F)(F)F)c4)cc3)CC2)C1 [Navitoclax] (partner 0.5 µM)
Method in brief: as §1

Tozasertib + Bortezomib = compound: Cc1cc(Nc2cc(N3CCN(C)CC3)nc(Sc3ccc(NC(=O)C4CC4)cc3)n2)n[nH]1 [Tozasertib] + CC(C)C[C@H](NC(=O)[C@H](Cc1ccccc1)NC(=O)c1cnccn1)B(O)O [Bortezomib] (partner 0.002 µM)
Method in brief: as §1

Tozasertib + Vorinostat = compound: Cc1cc(Nc2cc(N3CCN(C)CC3)nc(Sc3ccc(NC(=O)C4CC4)cc3)n2)n[nH]1 [Tozasertib] + O=C(CCCCCCC(=O)Nc1ccccc1)NO [Vorinostat] (partner 1 µM)
Method in brief: as §1

Tozasertib + Crizotinib = compound: Cc1cc(Nc2cc(N3CCN(C)CC3)nc(Sc3ccc(NC(=O)C4CC4)cc3)n2)n[nH]1 [Tozasertib] + C[C@@H](Oc1cc(-c2cnn(C3CCNCC3)c2)cnc1N)c1c(Cl)ccc(F)c1Cl [Crizotinib] (partner 1 µM)
Method in brief: as §1

Cell Line | relative viability (Tozasertib + Olaparib; first compound 0.004 µM) | relative viability (Tozasertib + Olaparib; first compound 0.01265 µM) | relative viability (Tozasertib + Olaparib; first compound 0.04 µM) | relative viability (Tozasertib + Olaparib; first compound 0.1265 µM) | relative viability (Tozasertib + Navitoclax; first compound 0.004 µM) | relative viability (Tozasertib + Navitoclax; first compound 0.01265 µM) | relative viability (Tozasertib + Navitoclax; first compound 0.04 µM) | relative viability (Tozasertib + Navitoclax; first compound 0.1265 µM) | relative viability (Tozasertib + Bortezomib; first compound 0.004 µM) | relative viability (Tozasertib + Bortezomib; first compound 0.01265 µM) | relative viability (Tozasertib + Bortezomib; first compound 0.04 µM) | relative viability (Tozasertib + Vorinostat; first compound 0.004 µM) | relative viability (Tozasertib + Vorinostat; first compound 0.01265 µM) | relative viability (Tozasertib + Vorinostat; first compound 0.04 µM) | relative viability (Tozasertib + Vorinostat; first compound 0.1265 µM) | relative viability (Tozasertib + Crizotinib; first compound 0.004 µM) | relative viability (Tozasertib + Crizotinib; first compound 0.01265 µM) | relative viability (Tozasertib + Crizotinib; first compound 0.04 µM) | relative viability (Tozasertib + Crizotinib; first compound 0.1265 µM) | relative viability (Tozasertib + Bortezomib; first compound 0.1265 µM)
LU99A | 0.251 | 0.212 | 0.26 | 0.251 | 0.739 | 0.636 | 0.715 | 0.414 | 1.1 | 0.917 | 0.881 | 0.544 | 0.423 | 0.428 | 0.339 | 0.627 | 0.514 | 0.466 | 0.27 | 
LXF-289 | 1.08 | 0.942 | 0.792 | 0.644 | 0.964 | 0.889 | 0.807 | 0.588 | 1 | 0.917 | 0.972 | 0.731 | 0.702 | 0.533 | 0.252 |  | 0.758 | 0.717 | 0.161 | 0.777
NCI-H23 | 0.34 | 0.29 | 0.269 | 0.182 | 0.842 | 0.867 | 0.805 | 0.472 | 1.06 | 1.24 | 1.11 |  | 0.693 | 0.599 | 0.168 | 0.45 | 0.459 | 0.421 | 0.27 | 0.424
NCI-H322M | 0.788 | 0.843 | 0.863 | 0.559 | 1.18 | 1.28 | 1.24 | 1.35 | 0.993 | 1.12 | 1.39 | 0.91 | 0.828 | 0.984 | 0.588 | 0.891 | 0.894 | 0.552 | 0.584 | 1.23
NCI-H441 | 0.625 | 0.425 | 0.49 | 0.459 | 0.761 | 0.543 | 0.483 | 0.55 | 0.424 | 0.298 | 0.379 | 0.852 | 0.823 | 0.845 | 0.766 | 0.706 | 0.591 | 0.828 | 0.628 | 0.213
NCI-H460 | 0.399 | 0.336 | 0.372 | 0.3 | 1.18 | 1.03 | 1.46 | 0.788 | 1.13 | 0.949 | 1.46 | 0.83 | 0.769 | 0.912 | 0.163 | 0.871 | 0.874 | 0.767 | 0.197 | 0.844
NCI-H520 | 0.285 | 0.316 |  | 0.272 | 1.08 | 1.03 | 1.17 | 0.602 | 0.555 | 0.585 | 0.852 | 0.814 | 0.747 | 0.575 | 0.224 | 1.31 | 0.742 | 0.484 | 0.355 | 0.255
NCI-H596 | 0.605 | 0.769 | 0.732 | 0.525 | 1.05 | 0.815 | 1.07 | 0.827 | 1.06 | 1.1 | 1.06 | 0.655 | 0.538 | 0.72 | 0.451 | 1.09 | 0.949 | 1.01 | 0.79 | 0.796
NCI-H647 | 0.744 | 0.445 | 0.501 | 0.369 | 1.06 | 1.15 | 1.03 | 0.882 | 1.17 |  | 1.16 | 0.729 | 0.377 | 0.384 | 0.172 | 1.26 | 0.979 | 0.794 | 0.31 | 0.447
NCI-H727 | 0.659 | 0.79 | 0.678 | 0.624 | 0.481 | 0.5 | 0.489 | 0.242 | 1.07 | 1.04 | 1.02 | 1.12 | 1.12 | 1.13 | 0.82 | 0.683 | 0.783 | 0.787 | 0.402 | 0.53
NCI-H838 | 0.814 | 0.752 | 0.815 | 0.386 | 1.26 | 1.14 | 1.4 | 1.14 | 0.757 | 0.801 | 1.32 | 0.716 | 0.713 | 0.502 | 0.235 | 0.939 | 0.863 | 0.898 | 0.706 | 0.281
NCI-H1355 | 0.748 | 0.694 | 0.689 | 0.545 | 0.867 | 0.917 | 1.15 | 0.768 | 1.19 | 1.15 | 1.27 | 0.594 | 0.571 | 0.669 | 0.516 | 1.09 | 1.09 | 1.09 | 0.775 | 0.606
NCI-H1437 | 0.66 | 0.58 | 0.595 | 0.541 | 1.05 | 0.974 | 1.09 | 0.87 | 0.757 | 0.509 | 0.55 | 0.851 | 0.792 | 0.769 | 0.481 | 0.929 | 0.839 | 0.721 | 0.922 | 0.31
NCI-H1650 | 0.818 | 0.721 | 0.885 | 0.722 |  | 0.981 | 1.24 | 0.936 | 0.202 | 0.207 | 0.24 | 0.517 | 0.462 | 0.68 | 0.391 |  | 1.01 | 0.919 |  | 0.2
NCI-H1651 | 0.189 | 0.158 | 0.173 | 0.167 | 1.17 | 1.05 | 1.18 | 1.07 | 1.05 | 0.851 | 0.979 | 0.603 | 0.56 |  | 0.361 | 0.892 | 0.81 | 0.906 | 0.867 | 0.885
NCI-H1666 | 0.717 | 0.727 | 0.729 | 0.705 | 0.948 | 0.863 | 0.918 | 0.87 | 0.772 | 0.748 |  | 0.988 | 1.06 | 1 | 0.961 | 0.974 | 1.27 | 0.958 | 0.578 | 0.434
NCI-H1734 | 0.734 | 0.577 | 0.66 | 0.374 | 0.851 | 0.761 | 0.834 | 0.504 | 0.833 | 0.998 | 1.07 | 0.711 | 0.741 | 0.649 | 0.245 | 0.703 |  | 0.67 | 0.258 | 0.464
NCI-H1755 | 0.854 | 0.879 | 0.822 | 0.59 | 0.978 | 0.977 | 1.02 | 0.875 | 0.938 | 0.927 | 1.04 | 0.749 | 0.782 | 0.744 | 0.675 | 0.803 | 0.89 | 0.852 | 0.634 | 0.626
NCI-H1915 | 0.248 | 0.275 | 0.212 | 0.212 | 0.767 | 0.765 | 0.773 | 0.623 | 1.07 | 0.924 | 0.953 | 0.505 | 0.564 | 0.512 | 0.439 | 0.98 | 0.889 | 0.873 | 0.721 | 0.727
NCI-H1975 | 0.829 | 0.739 | 0.795 | 0.74 | 1.14 | 1.2 | 1.23 | 1.1 | 0.319 | 0.408 |  | 0.706 | 0.706 | 0.72 | 0.583 | 1.05 | 1.03 | 0.853 | 0.604 | 0.338
NCI-H1993 | 0.998 | 1.05 | 0.897 | 0.722 | 0.901 | 0.884 | 0.927 | 0.651 | 1.06 | 1.05 | 1.33 | 0.754 | 0.824 | 1.11 | 0.408 | 0.931 | 0.776 | 0.845 | 0.581 | 0.805
NCI-H2009 | 0.739 | 0.69 | 0.692 | 0.698 | 1.21 | 1.16 | 1.17 | 1.17 | 1.12 | 0.938 | 1.08 | 0.772 | 0.696 | 0.735 | 0.578 | 1.06 | 1.06 | 0.988 | 0.847 | 0.811
NCI-H2023 | 0.486 | 0.459 | 0.553 | 0.342 | 1.04 | 0.983 | 1.05 | 0.924 | 1.2 | 0.905 | 1.16 | 0.547 | 0.674 | 0.518 | 0.16 | 0.717 | 0.704 | 0.611 | 0.403 | 
NCI-H2085 | 0.82 | 0.752 | 0.782 | 0.711 | 1.14 | 1.12 | 1.13 | 0.816 | 1.01 | 1.07 | 1.11 | 0.797 | 0.714 |  | 0.603 | 0.953 | 0.959 | 0.667 | 0.597 | 0.792
NCI-H2087 | 0.595 | 0.645 | 0.609 | 0.456 | 1.01 | 0.872 | 1.1 | 0.644 | 0.83 | 0.787 | 0.78 | 0.477 | 0.537 | 0.544 | 0.382 | 0.837 | 0.865 | 0.804 | 0.658 | 0.723
NCI-H2126 | 0.962 | 0.939 | 0.971 | 0.92 | 0.842 | 0.802 | 0.963 | 0.865 | 1.12 | 1.1 | 1.22 | 0.797 | 0.808 | 0.915 | 0.781 | 1.17 | 1.03 | 1.09 | 0.996 | 1.14
NCI-H2228 | 0.616 | 0.511 | 0.622 | 0.366 | 0.717 |  | 1.23 | 1.06 | 1.31 |  |  | 0.668 | 0.402 | 0.585 | 0.49 | 0.487 |  | 0.452 | 0.186 | 0.434
